Several values for one entry are separate records, joined by “and”; a condition that tells them apart may be missing. Equal entries are not always repeated.
Columns and labels:
NCI-H295R [1] = experiment: maximal response (efficacy) relative to DMSO (0%) and doxorubicin (-100%); higher = less growth inhibition; details: 48 h
NCI-H295R [2] = experiment: IC50 (antiproliferative, ATP content); details: 48 h

Row | SMILES | maximal response (NCI-H295R [1]) | IC50 (NCI-H295R [2])
1 | C[C@]12O[C@H](C[C@]1(O)CO)n1c3ccccc3c3c4c(c5c6ccccc6n2c5c31)CNC4=O | -150% | 18.8 µM
2 | CC[C@H]1CN2CCc3cc(OC)c(OC)cc3[C@@H]2C[C@@H]1C[C@H]1NCCc2cc(OC)c(OC)cc21 | -130% | 2.11 µM
3 | CC(=O)[C@]1(O)Cc2c(O)c3c(c(O)c2[C@@H](O[C@H]2C[C@H](N)[C@H](O)[C@H](C)O2)C1)C(=O)c1c(O)cccc1C3=O | -123% and -125% | 1.19 µM and 1.88 µM
4 | Oc1c(Cl)cc(Cl)cc1Sc1cc(Cl)cc(Cl)c1O | -137% | 13.3 µM
5 | Nc1nc(N)c2nc(-c3ccccc3)c(N)nc2n1 | -89.3% | 2.66 µM
6 | OC[C@H]1O[C@@H](n2cnc3c(S)ncnc32)[C@H](O)[C@@H]1O | -68.2% | 2.99 µM
7 | [O-]C(C(I)=C2)=C(I)C=C2/C(C(C=CC=C3)=C3C([O-])=O)=C1\C=C(I)C(C(I)=C1)=O.[Na+].[Na+] | -104% | 26.6 µM
8 | Cn1cnc([N+](=O)[O-])c1Sc1ncnc2nc[nH]c12 | -82.1% | 11.9 µM
9 | CC(=O)[C@]1(O)Cc2c(O)c3c(c(O)c2[C@@H](O[C@H]2C[C@H](N)[C@H](O)[C@H](C)O2)C1)C(=O)c1ccccc1C3=O.Cl | -121% | 1.68 µM
10 | CC[C@@]1(O)C(=O)OCc2c1cc1n(c2=O)Cc2cc3c([N+](=O)[O-])cccc3nc2-1 | -91.1% | 16.8 µM
11 | CN(C)c1ccc2nc3ccc(N(C)C)cc3[s+]c2c1.[Cl-] | -109% | 15 µM
12 | [C@@]32([C@@]([C@@H](/C1=C/C(=O)OC1)CC2)([C@H](O)C[C@H]4[C@H]3CC[C@H]9[C@@]4(CC[C@H](O[C@@H]5O[C@@H]([C@H]([C@H](C5)O)O[C@@H]8O[C@@H]([C@@H](O[C@@H]7O[C@@H]([C@@H](O[C@H]6[C@@H]([C@@H](O)[C@@H]([C@H](O6)CO)O)O)[C@H](C7)OC(=O)C)C)C(C8)O)C)C)C9)C)C)O (stereo partly specified) | -118% | 0.299 µM
13 | COc1cc2c(cc1O)CCN[C@]21CS[C@@H]2c3c(OC(C)=O)c(C)c4c(c3[C@H](COC1=O)N1[C@@H]2[C@H]2c3c(cc(C)c(OC)c3O)C[C@@H]([C@@H]1O)N2C)OCO4 | -117% | 0.0094 µM
14 | CCN1C(=CC=Cc2sc3ccccc3[n+]2CC)Sc2ccccc21.[I-] | -149% | 15 µM
15 | Cc1cc(C2CCCCC2)n(O)c(=O)c1.NCCO | -61.1% | 0.64 µM
16 | N=C(N)NN=C(/C=C/c1ccc([N+](=O)[O-])o1)/C=C/c1ccc([N+](=O)[O-])o1 | -124% | 5.31 µM
17 | Cc1cc(C(C#N)c2ccc(Cl)cc2)c(Cl)cc1NC(=O)c1cc(I)cc(I)c1O (stereo unspecified) | -130% | 4.22 µM
18 | [O-]S(C1=C(O)C(\C(C4=CC=C(N(C)C)C=C4)=C(C=C2)/C=C/C2=[N+](C)\C)=C(C=C3)C(C=C3S([O-])(=O)=O)=C1)(=O)=O.[Na+] | -103% | 11.9 µM
19 | Oc1c(Br)cc(Br)c2cccnc12 | -80.8% | 6.68 µM
20 | Cl.Nc1c2ccccc2nc2ccccc12.O | -131% | 18.8 µM
21 | S=c1[nH]cnc2[nH]cnc12 | -71.8% | 2.37 µM
22 | Cc1c2oc3c(C)ccc(C(=O)N[C@@H]4C(=O)N[C@H](C(C)C)C(=O)N5CCC[C@H]5C(=O)N(C)CC(=O)N(C)[C@@H](C(C)C)C(=O)O[C@H]4C)c3nc-2c(C(=O)N[C@@H]2C(=O)N[C@H](C(C)C)C(=O)N3CCC[C@H]3C(=O)N(C)CC(=O)N(C)[C@@H](C(C)C)C(=O)O[C@H]2C)c(N)c1=O | -113% | 0.376 µM
23 | [H][C@]1(CC3)[C@]([C@H]5C[C@@H]4[C@@](C=C6)=COC6=O)(O5)[C@]4(C)CC[C@]([C@]2(C)[C@@]3([H])C[C@@H](O)CC2)1[H] | -105% | 6.68 µM
24 | COC(=O)C[C@](O)(CCCC(C)(C)O)C(=O)O[C@@H]1C(OC)=C[C@]23CCCN2CCc2cc4c(cc2[C@H]13)OCO4 | -125% | 0.211 µM
25 | Clc1ccc(COC(Cn2ccnc2)c2ccc(Cl)cc2Cl)cc1.O=[N+]([O-])O (stereo unspecified) | -149% | 26.6 µM
26 | O=[N+]([O-])c1ccc(O)c2ncccc12 | -85.4% | 3.35 µM
27 | Cc1cc(/C=C/c2ccc3cc(N(C)C)ccc3[n+]2C)c(C)n1-c1ccccc1.Cc1cc(/C=C/c2ccc3cc(N(C)C)ccc3[n+]2C)c(C)n1-c1ccccc1.O=C([O-])c1cc2ccccc2c(Cc2c(O)c(C(=O)[O-])cc3ccccc23)c1O | -69.7% | 7.18 µM

Row | SMILES | maximal response (NCI-H295R [1]) | IC50 (NCI-H295R [2])
28 | CCCCCCCCN[C@H](C)C(O)c1ccc(SC(C)C)cc1 (stereo partly specified) | -137% | 21.1 µM
29 | O=C\1OC/C(=C/1)[C@H]2CC[C@@]9(O)[C@]2(C)[C@H](O)C[C@H]3[C@H]9CC[C@@H]4C[C@H](CC[C@]34C)O[C@@H]8O[C@H](C)[C@@H](O[C@@H]7O[C@H](C)[C@@H](O[C@@H]6O[C@H](C)[C@@H](O[C@@H]5O[C@H](CO)[C@@H](O)[C@H](O)[C@H]5O)[C@@H](O)C6)[C@@H](O)C7)[C@@H](O)C8 | -110% | 0.335 µM
30 | COC(C(=O)C(O)C(C)O)C1Cc2cc3cc(OC4CC(OC5CC(O)C(O)C(C)O5)C(O)C(C)O4)c(C)c(O)c3c(O)c2C(=O)C1OC1CC(OC2CC(OC3CC(C)(O)C(O)C(C)O3)C(O)C(C)O2)C(O)C(C)O1 (stereo unspecified) | -125% | 1.19 µM
31 | C[C@@H](C)[C@H]1C3=C(C=C(F)C=C3)CC[C@@](OC(COC)=O)1CCN(C)CCCC4=NC2=C(N4)C=CC=C2.Cl.Cl | -126% | 10.6 µM
32 | CCN1/C(=C\C=C\c2ccc3ccccc3[n+]2CC)C=Cc2ccccc21.[I-] | -134% | 23.7 µM
33 | COCC(=O)Nc1cc(Sc2ccccc2)ccc1N=C(NC(=O)OC)NC(=O)OC | -64.1% | 8.41 µM
34 | Cc1cc(O)c2c3c4c(cc(O)c13)C(C)(C)C(=O)c1c(O)cc(O)c(c1-4)C2=O | -103% | 3.35 µM
35 | Oc1ccc(Cl)cc1Sc1cc(Cl)ccc1O | -135% | 15 µM
36 | C[C@H]1CC[C@@H]2[C@@H](C)[C@H]3[C@H](C[C@H]4[C@@H]5CC=C6CC(O[C@@H]7O[C@H](CO)[C@H](O)[C@H](O[C@@H]8O[C@H](CO)[C@@H](O)[C@H](O)[C@H]8O)[C@H]7O[C@H]7O[C@@H](C)[C@H](O)[C@@H](O)[C@H]7O)CC[C@]6(C)[C@H]5CC[C@]34C)N2C1 (stereo partly specified) | -135% | 18.8 µM
37 | NC(C(C)=C2)=CC=C2/C(C1=CC=C(N)C=C1)=C3/C=CC(C=C3)=N.Cl | -87.4% | 11.9 µM
38 | [O-]n1ccccc1=S.[O-]n1ccccc1=S.[Zn+2] | -125% | 2.66 µM
39 | O=C1C2CC=CCC2C(=O)N1SC(Cl)(Cl)Cl (stereo unspecified) | -105% | 16.8 µM
40 | Nc1nc2nc[nH]c2c(=S)[nH]1 | -74.1% | 1.06 µM
41 | CCc1oc2ccccc2c1C(=O)c1cc(I)c(O)c(I)c1 | -101% | 7.5 µM
42 | CO[C@@H]1[C@H](C)O[C@@H](O[C@H]2C[C@@H](Oc3cc4cc5c(c(O)c4c(O)c3C)C(=O)[C@H](O[C@@H]3C[C@H](O[C@@H]4C[C@H](O[C@@H]6C[C@@](C)(O)[C@H](OC(C)=O)[C@@H](C)O6)[C@@H](O)[C@H](C)O4)[C@@H](O)[C@H](C)O3)[C@@H]([C@@H](OC)C(=O)[C@H](O)[C@H](C)O)C5)O[C@@H](C)[C@H]2OC(C)=O)C[C@@H]1O | -111% | 1.06 µM
43 | Cl.O=C1CSC2(CCN(CCCN3c4ccccc4Sc4ccc(Cl)cc43)CC2)N1 | -136% | 21.1 µM
44 | CCCCCCCCCCC[C@@H](C[C@@H]1OC(=O)[C@H]1CCCCCC)OC(=O)C(CC(C)C)NC=O (stereo partly specified) | -66.3% | 9.44 µM
45 | C[C@@]12C(=O)OC(=O)[C@]1(C)C1CCC2O1 | -114% | 1.43 µM
46 | CO[C@@]12[C@H](COC(N)=O)C3=C(C(=O)C(C)=C(N)C3=O)N1C[C@@H]1N[C@@H]12 | -132% | 26.6 µM
47 | COc1ccc(C=CC(=O)c2ccc(OC)cc2OC)cc1 | -117% | 23.7 µM
48 | CC[C@@H](C(=O)[C@@H](C)[C@@H](O)[C@H](C)CCc1ccc(C)c(O)c1C(=O)[O-])[C@H]1O[C@](CC)([C@H]2CC[C@](O)(CC)[C@H](C)O2)C[C@@H]1C.[Na+] | -159% | 23.7 µM
49 | C[n+]1cc2c3c(ccc2c2ccc4cc5c(cc4c21)OCO5)OCO3 | -119% | 4.73 µM
50 | COc1ccc(-c2ccc3cc(C(=O)O)ccc3c2)cc1C12CC3CC(CC(C3)C1)C2 | -122% | 6.68 µM
51 | Cc1cc(CC(C)CC(C)(C)C)n(O)c(=O)c1.NCCO (stereo unspecified) | -96.2% | 23.7 µM
52 | CNC(=O)c1cc(Oc2ccc(NC(=O)Nc3ccc(Cl)c(C(F)(F)F)c3)cc2)ccn1.Cc1ccc(S(=O)(=O)O)cc1 | -129% | 10.6 µM
53 | COc1cc(N[S+](C)(=O)[O-])ccc1Nc1c2ccccc2nc2ccccc12 | -65.5% | 3.76 µM

— the supplement of paper PMC3493320
